Data on 95 compounds can be found in PubChem BioAssay AID463203 (Broad Institute, 2010).

Activity calls are given as the source filed them.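 Rule for the calls: active = more than half of replicate measurements showing over 20% loss of kinase signal relative to plate controls; inconclusive = some but at most half of replicates over 20% loss; inactive = no replicate over 20% signal loss.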

This assay addresses Glycogen synthase kinase-3 alpha (Homo sapiens) (UniProt P49840). The assay can be described thus: concentration-response blocking of human GSK3A – biochemical, luminescence, cell-free homogeneous, retest, dose response (AID 463203). Particulars: GSK-3 alpha enzyme, ADP-Glo luminescence, 60 min.

Glycogen synthase kinase-3 alpha (Homo sapiens), sequence (P49840 whole entry, looked up): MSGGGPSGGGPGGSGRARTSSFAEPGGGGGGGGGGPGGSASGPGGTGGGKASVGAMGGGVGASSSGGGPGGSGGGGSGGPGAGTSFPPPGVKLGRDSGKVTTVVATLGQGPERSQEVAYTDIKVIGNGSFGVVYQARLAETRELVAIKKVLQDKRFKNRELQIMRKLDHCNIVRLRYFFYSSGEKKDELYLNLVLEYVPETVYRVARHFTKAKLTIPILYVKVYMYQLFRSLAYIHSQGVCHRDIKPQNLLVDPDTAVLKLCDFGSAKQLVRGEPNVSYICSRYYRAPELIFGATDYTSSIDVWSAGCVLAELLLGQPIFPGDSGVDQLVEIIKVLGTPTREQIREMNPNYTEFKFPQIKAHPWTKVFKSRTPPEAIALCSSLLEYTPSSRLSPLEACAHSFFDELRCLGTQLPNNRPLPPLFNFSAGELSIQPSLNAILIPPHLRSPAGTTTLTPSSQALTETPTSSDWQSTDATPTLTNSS

In the case of `CCCC1=C(C(=O)OCC)C(c2ccc(N(C)C)cc2)n2ncnc2N1` (stereo not given), the AC50 was > 30 µM (inactive). With `COc1ccccc1NC(=O)CSc1nnc(-c2ccncc2)o1` the figure was > 30 µM (inactive); with `Cc1cc(OC(=O)c2c(C)cc(OC(=O)c3c(C)cc(O)cc3O)cc2O)cc(O)c1C(=O)O`, > 30 µM (inactive). With `CC(C)=CCc1c(O)cc(O)c2c(=O)c(O[C@@H]3O[C@@H](C)[C@H](O)[C@@H](O)[C@H]3O)c(-c3ccc(O)cc3)oc12` the figure was 19.6 µM; with `CCOc1cccc(-c2c(C(=O)N/N=C(\C)c3ccccn3)nnn2-c2nonc2N)c1`, 2.56 µM. The figure for `CC(=O)c1ccc(N=Nc2c(C)[nH][nH]c2=O)cc1` is 24.5 µM.

Take `CN1/C(=C\C=[N+](C)c2ccccc2)C(C)(C)c2ccccc21`: the AC50 was > 30 µM (inactive).

For `N#Cc1cc(Cl)c(NCC2CCCO2)cc1C#N` (stereo not given), the AC50 was > 30 µM (inactive). With `Nc1nc(SCCOc2ccccc2)n[nH]1`, the AC50 is > 30 µM (inactive). With `O=c1[nH]ncn1-c1ccccc1` the figure was > 30 µM (inactive); with `Cc1ccc(-c2cn3cccnc3n2)cc1NC(=O)c1cccs1`, > 30 µM (inactive). With `CCOc1ccc(Cn2nnc(C(=O)Nc3cc(OC)cc(OC)c3)c2N)cc1` the figure was 13.7 µM; with `CC(C)OC(=O)/C(C#N)=C/c1c[nH]c2ccccc12`, > 30 µM (inactive). As for `CCOC(=O)c1sc(NC(=O)C2CC2)cc1C`, the AC50 is > 30 µM (inactive). With `Cc1cc(C)c(NC(=O)C2CCCN2CCOC(=O)c2cccc([N+](=O)[O-])c2)c(C)c1` (stereo not given) the figure was 13.6 µM; with `CCOC(=O)c1cnn(Cc2ccccc2Cl)c1N`, > 30 µM (inactive); with `COC(=O)c1sccc1-c1ccc(C(N)=O)o1`, 26.8 µM.

Turning to `Cc1ccc(S(=O)(=O)Nc2ccc(O)c3cccnc23)cc1`, the AC50 is > 30 µM (inactive). With `CC(=NCCCn1ccnc1)c1c(O)n(C2CCCCC2)c(=O)[nH]c1=O` the figure was 6.77 µM; with `Cc1ccc(-c2cc(-c3n[nH]c(=S)o3)c3ccccc3n2)cc1`, 27.7 µM; with `O=c1[nH]c(=O)n(C2CCCCCC2)c(O)c1C=NC1CCN(Cc2ccccc2)CC1`, 9.67 µM.

Turning to `CC1(C)CC(=O)C(C(C2=C(O)CC(C)(C)CC2=O)c2ccco2)C(=O)C1` (stereo not given), the AC50 is > 30 µM (inactive). With `N#CC1=C2SCN(Cc3ccco3)CN2C(=O)CC1c1cccc2ccccc12` (stereo not given) the figure was > 30 µM (inactive). With `N#Cc1c(Cl)c(Cl)c2nnc(-c3ccc(Br)cc3)n2c1Cl` the figure was 20.6 µM; with `Cc1ccnc(SCC(=O)Nc2sc3c(c2C#N)CCCC3)n1`, > 30 µM (inactive). With `Cc1nc(Nc2ccc(C(=O)O)cc2)nc(Nc2ccc(C(=O)O)cc2)c1[N+](=O)[O-]` the figure was 11.7 µM. Take `COc1ccc2cc(C(N)=O)c(=Nc3ccccc3)oc2c1`: the AC50 is > 30 µM (inactive). With `COc1cc(/C=N\NC(=O)c2ccc(-c3ccccc3)cc2)cc(Br)c1O` the figure was > 30 µM (inactive). With `Cc1ccc(/C=C2\C(=O)Nc3ccccc32)o1`, the AC50 was 31.4 µM.

Consider `CCOC(=O)c1sc(NC(=O)C2CC2)nc1C`, for which the AC50 was 15 µM. In the case of `COc1ccc(Cl)cc1C(=O)Nc1ccc(NC(=O)c2ccco2)cc1`, the AC50 is > 30 µM (inactive). The figure for `CCOc1ccc(C(=O)c2cnc3ccccc3c2N2CCN(CC)CC2)cc1` is > 30 µM (inactive); for `CC(=O)Nc1ccc2nsnc2c1` it is > 30 µM (inactive). The figure for `C/C(CC(=O)Nc1ccc(Cl)cc1Cl)=N\NC(=O)C(=O)N1CCCC1` is > 30 µM (inactive); for `Cc1nnc(SCC(=O)N2c3ccccc3CC2C)s1` (stereo not given) it is > 30 µM (inactive). The figure for `CCCCCCN=C(C)c1c(O)n(CCCC)c(=O)[nH]c1=O` is > 30 µM (inactive).

As for `COc1ccc(NC(=O)Nc2cc(F)ccc2C)cc1`, the AC50 is > 30 µM (inactive). The figure for `S=C(Nc1ccc(Nc2ccccc2)cc1)Nc1ccccn1` is > 30 µM (inactive); for `O=C(Nc1ccccc1-c1nnc(SCc2ccc(Cl)cc2)o1)c1ccccc1` it is > 30 µM (inactive). With `COc1ccc(CC(=O)Oc2ccc(C)cc2C)cc1` the figure was > 30 µM (inactive); with `O=C(C[n+]1ccccc1)c1ccc(Cl)cc1`, > 30 µM (inactive). On to `O=C(CNC(=S)N(Cc1ccccc1)Cc1cccnc1)NC1CCCCC1`, for which the AC50 was > 30 µM (inactive).

For the compound `NCc1cccc(CNc2ccc([N+](=O)[O-])cc2C(N)=O)c1`, the concentration at half-maximal activity (AC50) was 5.96 µM. In the case of `CC1=C(C(=O)OC(C)C)C(c2cccs2)n2ncnc2N1` (stereo not given), the half-maximal activity concentration (AC50) is 28.8 µM.

Take `NC(=O)c1ccsc1NC(=O)C1CC1`: the AC50 was > 30 µM (inactive). Take `Clc1ccc(Nc2nc(NCCN3CCOCC3)nc(N3CCOCC3)n2)cc1`: the AC50 is > 30 µM (inactive).

Turning to `O=c1[nH]c(=O)n(Cc2ccco2)c(O)c1/C=N/N1CCCCC1`, the AC50 was > 30 µM (inactive). With `COc1ccc(C(=O)O/N=C(\N)c2ccccn2)c(OC)c1`, the AC50 is > 30 µM (inactive). Take `O=C(Nc1ccccc1)c1cc(-n2cnnc2)ccc1Cl`: the AC50 is > 30 µM (inactive). With `Cc1ccc(CSc2ccc3nnc(-c4cccnc4)n3n2)cc1` the figure was > 30 µM (inactive); with `O=C(Nc1nnc(-c2ccco2)s1)C1CCCCC1`, > 30 µM (inactive).

On to `COc1c(-c2ccc(O)c(O)c2)oc2cc(O)cc(O)c2c1=O`, for which the AC50 is 1.93 µM. The figure for `COc1ccc2cc(C(=O)NCc3ccco3)c(=O)oc2c1` is > 30 µM (inactive); for `O=C(O)c1ccc2c(c1)C(=O)N(CCCCCCCN1C(=O)c3ccc(C(=O)O)cc3C1=O)C2=O` it is 22.2 µM.

With `Cc1nc(SCC(=O)NCC2CCCO2)c2c3c(sc2n1)CCC3` (stereo not given), the AC50 was > 30 µM (inactive). The figure for `O=C(CNS(=O)(=O)c1ccccc1)N/N=C/c1ccc(O)cc1` is 30.2 µM. Regarding `O=C(Nc1cccc(-c2cnc3ccccc3n2)c1)c1ccco1`, the AC50 was > 30 µM (inactive).

In the case of `Cc1ccc(C2C(C#N)=C(N)Oc3nc(-c4ccccc4)[nH]c32)o1` (stereo not given), the AC50 is > 30 µM (inactive). The figure for `CCCCOC(=O)C1=C(C)Nc2ncnn2C1c1ccc(OC)c(OC)c1` (stereo not given) is > 30 µM (inactive). The figure for `CCCCOC(=O)n1ccc(C(=O)Nc2ccccc2OC)n1` is 29.6 µM; for `COc1ccc(C2C3(C#N)C(N)=NC(OC)(OC)C23C#N)cc1` (stereo not given) it is > 30 µM (inactive). With `CCOC(=O)c1c2c(n(C)c1C)C(=O)C(=O)c1ccc(Br)cc1-2` the figure was 15 µM; with `S=C(NCc1ccccc1)Nc1cccc2cnccc12`, > 30 µM (inactive). For the compound `COC(=O)C1=C(C)N(CC(C)C)C(=O)/C1=C\c1cccs1`, the AC50 was > 30 µM (inactive).

As for `Cc1ccc(NC(=O)c2cc(-n3cnnc3)ccc2Cl)c(C)c1`, the AC50 was > 30 µM (inactive). With `Cc1ccc(-c2nnc(N3CCN(C(=O)COc4cccc(C)c4)CC3)c3ccccc23)cc1` the figure was > 30 µM (inactive); with `COc1ccccc1-n1c(O)c(C=NCCCn2ccnc2)c(=O)[nH]c1=O`, 18.1 µM. With `COc1cc2ncc(S(=O)(=O)c3ccccc3)c(N3CCCC(C)C3)c2cc1OC` (stereo not given) the figure was > 30 µM (inactive); with `O=C1NC(=S)N/C1=C\c1ccc(N2CCOCC2)cc1`, > 30 µM (inactive). The figure for `Nc1nnc(SCC(=O)Nc2sc3c(c2C(=O)c2ccccc2)CCCC3)s1` is > 30 µM (inactive); for `CN(c1ccccc1)c1nc(-n2ccnc2)nc(-n2ccnc2)n1` it is 29.3 µM; for `COc1cccc(CC(=S)N2CCOCC2)c1` it is > 30 µM (inactive).

As to `CC(C)C(=O)NC(=S)/C=C1/N(C)c2ccccc2C1(C)C`, the AC50 was > 30 µM (inactive). With `C=CCNC(=S)N/N=C(\C)c1ccc(OC)cc1` the figure was > 30 µM (inactive).

For the compound `CCCCOC(=O)C1=C(C)Nc2ncnn2C1c1cc(OC)ccc1OC` (stereo not given), the AC50 is > 30 µM (inactive). With `COc1ccc(CC(=O)Nc2ccc(-c3cn4ccccc4n3)cc2)cc1OC` the figure was > 30 µM (inactive); with `S=c1[nH]nc(-c2cc3c(s2)-c2ccccc2CC3)o1`, 22.9 µM. With `Nc1ccccc1-c1nc2ccccc2[nH]1` the figure was > 30 µM (inactive); with `Cc1cc(=O)[nH]c2cc(O)ccc12`, > 30 µM (inactive); with `CC1=Nn2c(nc3sc4c(c3c2=O)CCCC4)SC1`, > 30 µM (inactive). With `CS(=O)(=O)N1CCN(c2ccccc2NC(=O)c2ccc(Br)o2)CC1` the figure was 1.94 µM. As for `Fc1ccccc1-c1nnc2ccc3ccccc3n12`, the AC50 is > 30 µM (inactive). For `Cc1cc(C)c[n+](C2=C([O-])c3ccccc3C(=O)/C2=N\S(=O)(=O)c2cccs2)c1`, the AC50 was > 30 µM (inactive).

Turning to `Cc1cccc(-n2nc(C)c3c2NC2=C(C(=O)CCC2)C3c2ccccn2)c1` (stereo not given), the AC50 is > 30 µM (inactive). Consider `COc1cccc(N(CC(=O)Nc2cccc(C(C)=O)c2)S(C)(=O)=O)c1`, for which the AC50 is > 30 µM (inactive). The figure for `COc1ccccc1NC(=O)CCSc1nnc(-c2ccc(O)cc2)o1` is 8.24 µM; for `Oc1ccc2cccnc2c1` it is > 30 µM (inactive); for `Cc1ccc(O)c(C(=O)c2coc(=N)c(C(=O)NC(C)C)c2)c1` it is 22.1 µM.

Take `CCN1/C(=C\C(C)=O)Sc2ccc(OC)cc21`: the AC50 was 17.4 µM. The figure for `Cc1cccc(NC(=O)CSc2nnc([C@@H](N)Cc3c[nH]c4ccccc34)o2)c1C` is > 30 µM (inactive); for `CC(C)(C)N=Cc1c(O)ccc2oc3c(c12)CCCC3` it is > 30 µM (inactive); for `Cc1ccc(N=c2oc3cc(O)ccc3cc2C(N)=O)cc1` it is 2.17 µM. The figure for `Cc1[nH]c2ccccc2c1N=Nc1cccc(C(=O)O)c1` is > 30 µM (inactive); for `COc1ccc(CCNC(=O)c2nnn(-c3ccccc3OC)c2N)cc1OC` it is 14.8 µM; for `Brc1ccccc1C1=Nn2c(nnc2-c2ccco2)SC1` it is 17.5 µM.

A word on the AC50: it is the midpoint of the concentration-response curve, whichever way the signal moves.
